pIC50: −log10 of the molar value. Where two headings read alike, the source gives them in different places.
Columns and labels:
[1] = target: GSK3β (Homo sapiens, UniProt P49841); test: GSK3β kinase assay (Caliper LabChip3000, fluoresceinated peptide substrate); type: biochemical; details: for IC50: first value of the cell, 250 pM enzyme, 20 uM ATP, 20 hours at room temperature, read-out: GSK3β/α (nM): GSK3β IC50
Method: (§1) The kinase assay was performed in V-bottom 384-well plates. […] The reaction was incubated at room temperature for 20 hours and terminated by adding 45 μl of 35 mM EDTA to each sample. The reaction mixture was analyzed on the Caliper LabChip3000 (Caliper, Hopkinton, Mass.) by electrophoretic separation of the unphosphorylated substrate and phosphorylated product. […] Compounds were dissolved at 10 mM in dimethylsulfoxide (DMSO) and evaluated at eleven concentrations. IC50 values were derived by non-linear regression analysis.

[2] = target: GSK3α (Homo sapiens, UniProt P49840); test: biochemical; details: for IC50: second value of the cell, 250 pM enzyme, 20 uM ATP, 20 hours at room temperature, read-out: GSK3β/α (nM): GSK3α IC50
GSK3α, sequence (P49840 whole entry, species assumed): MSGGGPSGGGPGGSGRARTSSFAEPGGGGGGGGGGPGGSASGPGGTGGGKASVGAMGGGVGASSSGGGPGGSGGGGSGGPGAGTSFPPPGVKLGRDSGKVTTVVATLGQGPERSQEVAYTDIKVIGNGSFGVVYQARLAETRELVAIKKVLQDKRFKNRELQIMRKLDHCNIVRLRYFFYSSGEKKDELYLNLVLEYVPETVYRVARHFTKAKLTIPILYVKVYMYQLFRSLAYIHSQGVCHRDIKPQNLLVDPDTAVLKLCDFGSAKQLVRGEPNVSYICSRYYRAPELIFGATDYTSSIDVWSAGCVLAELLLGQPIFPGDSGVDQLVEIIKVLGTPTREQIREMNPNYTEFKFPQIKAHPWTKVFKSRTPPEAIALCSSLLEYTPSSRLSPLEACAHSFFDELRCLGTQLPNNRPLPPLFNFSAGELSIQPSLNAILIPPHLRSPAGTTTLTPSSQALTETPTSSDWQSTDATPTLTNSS
Method: as §1

[3] = test system: pTau; test: pTau assay (method not described); type: cell-based; details: for pIC50: read-out: pTau

GSK3β, sequence (P49841 whole entry, species assumed): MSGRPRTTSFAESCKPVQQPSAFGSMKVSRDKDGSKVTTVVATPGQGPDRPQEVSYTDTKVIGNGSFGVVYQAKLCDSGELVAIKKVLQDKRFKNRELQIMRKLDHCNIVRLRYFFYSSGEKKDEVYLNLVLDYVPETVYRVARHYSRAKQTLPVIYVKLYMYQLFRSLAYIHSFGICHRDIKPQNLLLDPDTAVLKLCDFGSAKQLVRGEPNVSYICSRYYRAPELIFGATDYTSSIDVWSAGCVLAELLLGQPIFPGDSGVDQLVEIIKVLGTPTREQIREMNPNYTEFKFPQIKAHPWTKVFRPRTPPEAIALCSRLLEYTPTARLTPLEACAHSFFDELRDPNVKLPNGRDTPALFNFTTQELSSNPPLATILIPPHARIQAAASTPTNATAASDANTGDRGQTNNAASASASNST

Question: With `CC1CN(c2ccncc2NC(=O)c2ccnc(NC(=O)C3CC3)c2)CCO1` (racemic) [Example 46, 2-(Cyclopropanecarboxamido)-N-(4-(2-methylmorpholino)pyridin-3-yl)isonicotinamide] as the compound, how does the pIC50 [1] read?
Answer: 9.27

Question: And the pIC50 [2]?
Answer: 9.43

Question: And the IC50 ([3]; read-out: pTau (nM))?
Answer: 57 nM

Question: Which IC50 [2] does the source give for `COc1ccc(NC(=O)c2ccnc(NC(=O)C3CC3)c2)cn1` [Example 7, 2-(Cyclopropanecarboxamido)-N-(6-methoxypyridin-3-yl)isonicotinamide] here?
Answer: 1000 nM

Question: And the pIC50 [3]?
Answer: ≤ 5.00

Question: Which results are given for `O=C(Nc1cnccc1-c1ccsc1)c1ccnc(NC(=O)C2CC2)c1` [Example 31, 2-(Cyclopropanecarboxamido)-N-(4-(thiophen-3-yl)pyridin-3-yl)isonicotinamide]?
Answer: IC50 [1]: 4.4 nM; pIC50 [3]: 6.70

Question: How did the IC50 [1] turn out when `O=C(Nc1cnccc1-c1cccnc1)c1ccnc(NC(=O)C2CC2)c1` [Example 32, N-([3,4′-bipyridin]-3′-yl)-2-(cyclopropanecarboxamido)isonicotinamide] was run?
Answer: 160 nM

Question: What about the pIC50 [3] of the same compound?
Answer: 5.49

Question: What does the source list for `O=C(Nc1cnccc1-c1ccncc1)c1ccnc(NC(=O)C2CC2)c1` [Example 33, N-([4,4′-bipyridin]-3-yl)-2-(cyclopropanecarboxamido)isonicotinamide]?
Answer: IC50 [1]: 28 nM; pIC50 [3]: 6.17

Question: `O=C(Nc1cnccc1C1CCCC1)c1ccnc(NC(=O)C2CC2)c1` [Example 36, N-(4-cyclopentylpyridin-3-yl)-2-(cyclopropanecarboxamido)isonicotinamide] was tested. Which pIC50 [1] did it give?
Answer: 7.39

Question: And the pIC50 [3]?
Answer: 6.10

Question: With `O=C(Nc1cnccc1C1CCCCC1)c1ccnc(NC(=O)C2CC2)c1` [Example 37, N-(4-cyclohexylpyridin-3-yl)-2-(cyclopropanecarboxamido)isonicotinamide] as the compound, how does the pIC50 [1] read?
Answer: 6.92

Question: What about the pIC50 [3] of the same compound?
Answer: 5.92

Question: What does the source list for `C=C(C)c1ccncc1NC(=O)c1ccnc(NC(=O)C2CC2)c1` [Example 38, 2-(Cyclopropanecarboxamido)-N-(4-(prop-1-en-2-yl)pyridin-3-yl)isonicotinamide]?
Answer: pIC50 [1]: 8.36; pIC50 [3]: 7.10

Question: `CC(C)c1ccncc1NC(=O)c1ccnc(NC(=O)C2CC2)c1` [Example 39, 2-(Cyclopropanecarboxamido)-N-(4-isopropylpyridine-3-yl)isonicotinamide] was tested. Which pIC50 [1] did it give?
Answer: 7.64

Question: And the pIC50 [3]?
Answer: 6.33

Question: What does the source list for `Cn1cnc(NC(=O)c2ccnc(NC(=O)C3CC3)c2)c1` [Example 174, 2-(cyclopropanecarboxamido)-N-(1-methyl-1H-imidazol-4-yl)isonicotinamide]?
Answer: IC50 [2]: 1200 nM; pIC50 [3]: ≤ 5.00

Question: Which IC50 [1] does the source give for `O=C(Nc1cnc(-c2ccccn2)s1)c1ccnc(NC(=O)C2CC2)c1` [Example 176, 2-(cyclopropanecarboxamido)-N-(2-(pyridin-2-yl)thiazol-5-yl)isonicotinamide] here?
Answer: 650 nM

Question: And the pIC50 [3]?
Answer: 5.26

Question: What does the source list for `Cc1ncc(NC(=O)c2ccnc(NC(=O)C3CC3)c2)s1` [Example 177, 2-(cyclopropanecarboxamido)-N-(2-methylthiazol-5-yl)isonicotinamide]?
Answer: IC50 [1]: 61 nM; pIC50 [3]: 5.41

Question: `O=C(Nc1cnc(-c2ccccc2)s1)c1ccnc(NC(=O)C2CC2)c1` [Example 181, 2-(cyclopropanecarboxamido)-N-(2-phenylthiazol-5-yl)isonicotinamide] was tested. Which pIC50 [3] did it give?
Answer: 5.26

Question: `O=C(Nc1cncc(-c2ccccc2)c1)c1ccnc(NC(=O)C2CCC2)c1` [Example 213, 2-(cyclobutanecarboxamido)-N-(5-phenylpyridin-3-yl)isonicotinamide] was tested. Which IC50 [2] did it give?
Answer: 2.8 nM

Question: And the pIC50 [3]?
Answer: 5.80

Question: How did the pIC50 [3] turn out when `O=C(Nc1cnccc1-c1ccc(Cl)cc1)c1ccnc(NC(=O)C2CC(Cl)C2)c1` (stereo not drawn) [Example 224, N-(4-(4-chlorophenyl)pyridin-3-yl)-2-((1,3-trans)-3-cholorocyclobutanecarboxamido)isonicotinamide] was run?
Answer: 7.82

Question: `O=C(Nc1cnccc1-c1ccc(Cl)cc1)c1ccnc(NC(=O)C2CC(Cl)C2)c1` (stereo not drawn) [Example 225, N-(4-(4-chlorophenyl)pyridin-3-yl)-2-((1,3-cis)-3-cholorocyclobutanecarboxamido)isonicotinamide] was tested. Which pIC50 [3] did it give?
Answer: 7.37
